Assay results published in ChEMBL document CHEMBL1201862, “PubChem BioAssay data set” (2004).
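Where inhibition never reached the appropriate level, the endpoint shown equals the highest concentration tested. Otherwise, values were interpolated linearly from a five-concentration, 48-hour dose response in 96-well plates. Abbreviation: GI50, concentration required for 50% inhibition of growth.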 Calls of active or inactive are those of the source. Cut-off read from the data, not from the text of the source: active = GI50 up to about 1.1 µM and inactive = higher.

Legend:
Assay in all cases: NCI anticancer screen, dose series, 48 h
XF498 = system: XF498
DLD-1 = system: DLD-1
SNB-78 = system: SNB-78
KM-20L2 = system: KM-20L2
LXFL 529 = system: LXFL 529
DMS-114 = system: DMS-114
M19-MEL = system: M19-MEL
HOP-18 = system: HOP-18
RXF 631 = system: RXF 631

Measured: GI50

C[N+](C)(C)CC(=O)NC(=O)N/N=C\C(CC#N)CN(Cc1ccccc1)Cc1ccccc1 (centres undefined)
inactive: XF498 > 100 µM | DLD-1 > 100 µM | SNB-78 > 100 µM | KM-20L2 > 100 µM | LXFL 529 > 100 µM | DMS-114 > 100 µM | M19-MEL > 100 µM | HOP-18 59.6 µM | RXF 631 > 100 µM
